Laboratory results: publication PMC6409966 (2019)

System: thiolated MG binding aptamer (RNA, aptamer) GGAUCCCGACUGGCGAGAGCCAGGUAACGAAUGGAUCC
Test: cyclic voltammetry / DPV of captured MG on aptamer electrode; EIS
Conditions: Na+ / K+ (Na2HPO4/KH2PO4 buffer); phosphate buffer pH 7.4, room temperature, 2 h; 1.0 and 10 μM MG; immobilised aptamer

binding: yes
Compound: CN(C)c1ccc(C(=C2C=CC(=[N+](C)C)C=C2)c2ccccc2)cc1
